Test results taken from US20200038314A1, “PROCESS FOR PREVENTING OR SLOWING THE APPEARANCE OF UNATTRACTIVE SIGNS, GENERATED BY POLLUTANTS PRESENT IN THE ATMOSPHERE, ON THE SKIN, THE SCALP, THE HAIR OR THE MUCOUS MEMBRANES” (SOCIETE D'EXPLOITATION DE PRODUITS POUR LES INDUSTRIES …, priority 2016, published 2020).

Assays:
Assay type in all cases: cell-based
cytokine IL-1α = assay: assay for the cytokine IL-1α in cadmium-exposed keratinocyte culture; details: human keratinocytes, product 24 h then cadmium 35 μM 24 h; sulforaphane at 1 μM, Extract A at 0.5%
Procedure: (§1) Principle of the evaluation: evaluation of the effects of an exposure to cadmium on a keratinocyte culture.
(§2) Protocol: Human keratinocytes are cultured in a 96-well culture plate. After a few days of culture, the products evaluated, namely the Extract A at 0.5% by weight and sulforaphane (a positive reference known to those skilled in the art), are applied in the culture medium. At the end of incubation for 24 hours, the cells are exposed to a solution of cadmium at 35 μM for 24 hours, then 24 hours later, the following various evaluations are carried out: • evaluation of the cell viability by means of a DNA assay by the Hoechst method • evaluation of the cell metabolism by means of a protein assay by the BCA method; • evaluation of the inflammatory component by means of an assay for the cytokines IL-1a and IL-8.

Human keratinocytes [1] = assay: protein assay by the BCA method on cadmium-exposed keratinocyte culture; details: product 24 h then cadmium 35 μM 24 h, sulforaphane at 1 μM, Extract A at 0.5%
Procedure: as §1, §2

cytokine IL-8 = assay: assay for the cytokine IL-8 in cadmium-exposed keratinocyte culture; details: human keratinocytes, product 24 h then cadmium 35 μM 24 h; sulforaphane at 1 μM, Extract A at 0.5%
Procedure: as §1, §2

Human keratinocytes [2] = assay: DNA assay by the Hoechst method on cadmium-exposed keratinocyte culture; details: product 24 h then cadmium 35 μM 24 h, sulforaphane at 1 μM, Extract A at 0.5%
Procedure: as §1, §2

Question: With `C[S+]([O-])CCCCN=C=S` (stereo not shown) [sulforaphane] as the compound, how does the “Mean values of IL-1α expressed” value (cytokine IL-1α) read?
Answer: 0.8238 pg/μg of proteins

Question: And the “Mean values of the expressed proteins” value (Human keratinocytes [1])?
Answer: 156.7 µg/mL

Question: And the “Mean values of IL-8 expressed” value (cytokine IL-8)?
Answer: 3.7081 pg/μg of proteins

Question: And the “Mean values of the expressed DNA” value (Human keratinocytes [2])?
Answer: 6.7 µg/mL
